# Measurements from the supplement of paper PMC10307832.
# How the values were obtained:
# Assay in all cases: relative viability (nuclei count vs DMSO), 5 days (fraction); higher = more cells survive
# XMD13-2 + Vorinostat = compound: C1CC1C(=O)NC2=NNC3=C2C=CC(=C3)C4=CC(=CC=C4)C(=O)NC5CC5 [XMD13-2] + O=C(CCCCCCC(=O)Nc1ccccc1)NO [Vorinostat] (partner 1 µM)
# Procedure, shortened: (§1)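 Relative viability was taken as the ratio of nuclei in treated wells to nuclei in vehicle wells. Lung cancer cell lines in 1536-well plates received compounds by pin tool one day after seeding, either one drug alone or a fixed anchor-drug dose plus five library-drug doses (not always all listed) in √10 steps. Nuclei were counted on 4× images after 5 days of treatment, and values are medians of duplicate plates.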
# Dasatinib + Alpelisib = compound: Cc1nc(Nc2ncc(C(=O)Nc3c(C)cccc3Cl)s2)cc(N2CCN(CCO)CC2)n1 [Dasatinib] + Cc1nc(NC(=O)N2CCC[C@H]2C(N)=O)sc1-c1ccnc(C(C)(C)C(F)(F)F)c1 [Alpelisib] (partner 2 µM)
# Procedure, shortened: as §1
# Dasatinib + Tozasertib = compound: Cc1nc(Nc2ncc(C(=O)Nc3c(C)cccc3Cl)s2)cc(N2CCN(CCO)CC2)n1 [Dasatinib] + Cc1cc(Nc2cc(N3CCN(C)CC3)nc(Sc3ccc(NC(=O)C4CC4)cc3)n2)n[nH]1 [Tozasertib] (partner 0.1 µM)
# Procedure, shortened: as §1
# XMD13-2 + Linsitinib = compound: C1CC1C(=O)NC2=NNC3=C2C=CC(=C3)C4=CC(=CC=C4)C(=O)NC5CC5 [XMD13-2] + C[C@]1(O)C[C@@H](c2nc(-c3ccc4ccc(-c5ccccc5)nc4c3)c3c(N)nccn32)C1 [Linsitinib] (partner 1 µM)
# Procedure, shortened: as §1
Cell Line,relative viability (XMD13-2 + Vorinostat; first compound 0.05 µM),relative viability (XMD13-2 + Vorinostat; first compound 0.1581 µM),relative viability (XMD13-2 + Vorinostat; first compound 0.5 µM),relative viability (XMD13-2 + Vorinostat; first compound 1.581 µM),relative viability (XMD13-2 + Vorinostat; first compound 5 µM),relative viability (Dasatinib + Alpelisib; first compound 0.005 µM),relative viability (Dasatinib + Alpelisib; first compound 0.01581 µM),relative viability (Dasatinib + Alpelisib; first compound 0.05 µM),relative viability (Dasatinib + Alpelisib; first compound 0.1581 µM),relative viability (Dasatinib + Alpelisib; first compound 0.5 µM),relative viability (Dasatinib + Tozasertib; first compound 0.005 µM),relative viability (Dasatinib + Tozasertib; first compound 0.01581 µM),relative viability (Dasatinib + Tozasertib; first compound 0.05 µM),relative viability (Dasatinib + Tozasertib; first compound 0.1581 µM),relative viability (Dasatinib + Tozasertib; first compound 0.5 µM),relative viability (XMD13-2 + Linsitinib; first compound 0.05 µM),relative viability (XMD13-2 + Linsitinib; first compound 0.1581 µM),relative viability (XMD13-2 + Linsitinib; first compound 0.5 µM),relative viability (XMD13-2 + Linsitinib; first compound 1.581 µM),relative viability (XMD13-2 + Linsitinib; first compound 5 µM)
201T,0.997,1.04,1.05,0.981,1.04,0.95,0.922,0.845,0.654,0.338,0.877,0.746,0.751,0.606,0.425,1.06,1.08,1.01,0.957,0.908
A549,,,,,,0.65,0.479,0.558,0.432,0.139,,,,,,0.856,0.513,0.579,0.677,0.674
A-427,0.927,0.852,0.862,,0.705,0.961,1.06,1,0.573,0.533,0.223,0.214,0.176,0.142,0.156,1.11,1.14,1.18,1.09,1
ABC-1,1.3,0.979,1.03,,0.774,0.978,0.776,0.888,0.714,0.571,0.174,0.217,0.172,0.15,0.154,0.918,0.874,1.04,0.704,0.86
BEN,0.625,0.543,0.585,0.574,0.487,0.857,0.536,0.611,0.342,0.365,0.516,0.412,0.489,0.415,0.406,1.07,0.884,0.963,0.866,0.898
CAL-12T,0.76,0.652,0.792,0.71,1.06,1.15,1.03,1.62,1.13,0.355,0.386,0.346,0.297,0.228,0.112,0.802,0.764,0.837,0.68,0.843
COR-L23,0.58,0.566,0.737,0.368,0.544,0.591,0.5,0.523,0.347,0.216,0.199,0.159,0.173,0.119,0.109,1.01,0.917,1.02,0.848,0.872
COR-L 105,0.781,0.929,1.01,0.79,0.847,0.671,0.486,0.715,0.452,0.209,0.375,0.299,0.332,0.228,0.208,1.04,1.13,1,0.875,0.797
Calu-6,,,,,,0.801,0.665,0.731,0.613,0.576,,,,,,0.949,0.996,,0.912,0.913
ChaGo-K-1,0.789,0.635,0.837,0.7,0.716,,,,,,0.23,0.203,0.207,0.21,0.186,,,,,
EBC-1,,,,,,0.78,0.755,0.579,0.579,0.463,,,,,,0.889,0.966,1.08,0.874,0.766
EKVX,0.785,0.625,0.758,0.661,0.702,0.774,0.637,0.651,0.557,0.145,0.372,0.279,0.303,0.214,0.119,1.16,0.911,0.992,0.871,1.05
EMC-BAC-2,0.502,0.43,0.438,,0.36,0.632,0.478,0.466,0.285,0.194,0.271,0.205,0.226,0.179,0.164,0.912,0.82,0.841,0.848,0.689
EPLC-272H,0.474,0.473,0.374,0.33,0.0998,1.08,0.913,1.02,0.777,0.244,0.254,0.282,0.222,0.137,0.122,1.21,1.08,1.25,1.06,0.284
H3255,0.839,0.716,0.746,,0.662,0.68,0.621,0.63,0.434,0.24,0.721,0.543,0.463,0.547,0.322,1.12,1,0.946,0.97,0.94
HARA,0.555,0.484,0.536,0.578,0.372,0.778,0.723,0.57,0.27,0.193,0.119,0.133,0.0917,0.0528,0.0523,0.934,0.931,0.944,0.972,1.07
HCC-15,0.971,0.862,0.957,0.764,0.823,0.875,0.783,0.779,0.53,0.528,0.424,0.403,0.338,0.251,0.235,0.936,0.869,0.903,0.947,0.599
HCC-44,1.11,1.17,1.21,1.09,1.09,0.789,0.705,0.676,0.271,0.183,1.19,0.716,0.452,0.75,0.313,0.683,0.694,0.697,0.704,0.773
HCC-78,0.481,0.489,0.454,0.445,0.413,0.259,0.261,0.304,0.257,0.176,0.47,0.371,0.395,0.242,0.181,0.696,0.587,0.603,0.548,0.461
HCC-366,0.439,0.291,0.386,0.379,0.399,0.096,0.174,0.141,0.151,0.103,0.115,0.109,0.109,0.0407,0.0371,0.809,0.54,0.749,0.647,0.736

Cell Line,relative viability (XMD13-2 + Vorinostat; first compound 0.05 µM),relative viability (XMD13-2 + Vorinostat; first compound 0.1581 µM),relative viability (XMD13-2 + Vorinostat; first compound 0.5 µM),relative viability (XMD13-2 + Vorinostat; first compound 1.581 µM),relative viability (XMD13-2 + Vorinostat; first compound 5 µM),relative viability (Dasatinib + Alpelisib; first compound 0.005 µM),relative viability (Dasatinib + Alpelisib; first compound 0.01581 µM),relative viability (Dasatinib + Alpelisib; first compound 0.05 µM),relative viability (Dasatinib + Alpelisib; first compound 0.1581 µM),relative viability (Dasatinib + Alpelisib; first compound 0.5 µM),relative viability (Dasatinib + Tozasertib; first compound 0.005 µM),relative viability (Dasatinib + Tozasertib; first compound 0.01581 µM),relative viability (Dasatinib + Tozasertib; first compound 0.05 µM),relative viability (Dasatinib + Tozasertib; first compound 0.1581 µM),relative viability (Dasatinib + Tozasertib; first compound 0.5 µM),relative viability (XMD13-2 + Linsitinib; first compound 0.05 µM),relative viability (XMD13-2 + Linsitinib; first compound 0.1581 µM),relative viability (XMD13-2 + Linsitinib; first compound 0.5 µM),relative viability (XMD13-2 + Linsitinib; first compound 1.581 µM),relative viability (XMD13-2 + Linsitinib; first compound 5 µM)
HCC-827,0.838,0.937,0.956,0.765,1.06,1.01,0.737,0.757,0.374,0.123,0.457,0.409,0.399,0.177,0.101,0.873,0.9,0.874,0.9,0.863
HOP-62,0.612,0.587,0.658,0.694,0.537,1.27,1.02,0.838,0.679,0.272,0.387,0.372,0.393,0.315,0.242,1.03,0.971,1,1.09,0.913
IA-LM,0.954,1.05,0.96,,0.718,0.969,0.71,0.882,0.84,0.62,,,,,,0.627,0.56,0.582,0.683,0.713
LC-2-ad,0.721,0.703,0.717,0.696,0.722,0.854,0.703,0.699,0.276,0.169,0.421,0.366,0.315,0.271,0.249,0.927,0.924,0.826,0.769,0.831
LCLC-97TM1,0.769,0.551,0.747,0.532,0.301,0.266,0.246,0.24,0.254,0.143,0.187,0.211,0.244,0.217,0.159,0.206,0.157,0.187,0.176,0.178
LCLC-103H,0.891,0.83,0.817,0.696,0.751,0.978,1.06,0.818,0.647,0.328,0.485,0.461,0.453,0.3,0.129,1,1.1,1.25,1.18,1.14
LK-2,0.439,0.201,0.212,0.198,0.137,1.04,0.764,0.449,0.312,0.275,0.16,0.15,0.141,0.173,0.148,0.715,0.518,0.554,0.676,0.422
LOU-NH91,1.05,0.971,0.935,0.852,1.02,0.69,0.584,0.572,0.441,0.34,0.721,0.652,0.637,0.556,0.307,0.985,0.981,0.966,0.876,1.1
LU99A,0.536,0.43,0.522,0.561,0.468,0.494,0.5,0.477,0.288,0.192,0.233,,0.243,0.209,0.23,0.609,0.552,0.591,0.445,0.463
NCI-H522,0.856,0.873,0.805,0.982,0.907,,,,,,0.568,0.483,0.539,0.466,0.437,,,,,
NCI-H1299,,,,,,1.07,1.13,1.08,0.924,0.288,,,,,,0.982,1.03,1.15,0.997,1.03
NCI-H1563,,,,,,0.742,0.615,0.662,0.608,0.604,,,,,,1.22,1.27,1.16,1.12,1.31
NCI-H1623,,,,,,,,,,,0.447,0.329,0.442,0.351,0.363,,,,,
NCI-H1648,0.733,,0.42,0.391,0.459,,,,,,0.624,0.545,0.327,0.233,0.14,,,,,
NCI-H1650,0.661,0.584,0.576,0.594,0.555,,,,,,0.356,0.302,0.342,0.233,0.153,,,,,
NCI-H1703,,,,,,0.229,0.179,0.184,0.155,0.157,,,,,,0.637,1.23,0.805,,0.74
NCI-H1792,,,,,,0.73,0.431,0.532,0.389,0.153,,,,,,0.631,0.519,0.586,0.661,0.515
NCI-H2170,0.904,0.753,0.855,0.794,0.809,0.738,0.649,0.644,0.449,0.382,0.698,0.622,0.722,0.564,0.247,,,,,
NCI-H2342,0.741,0.736,0.831,0.687,0.773,,,,,,0.524,0.427,0.333,0.356,0.218,,,,,
SW 900,0.721,0.42,0.501,0.45,0.623,,,,,,0.609,0.564,0.607,0.46,0.359,,,,,
